“Also recorded” adds a separate entry of the source.

The test system of assay [1] is B. cereus. In words: Antibiotic disc diffusion assay of antibacterial activity against B. cereus. In kind it is cell-based, Bacillus cereus ATCC19637. The conditions noted are these: purified moe A intermediates on B. cereus reporter strain; FIG. 19, 50-200 nM per disc. The protocol:
Spots 1 and 2—moe A (100 and 10 nM per disc, respectively); 3—compound 15 (100 nM); 4—compound 16 (100 nM), 5—compound 17 (100 nM), 6—compound 24 (100 nM), 7—mixture of compounds 22 and 23 (200 nM), 8—compound 11 (100 nM), 9—mixture of compounds 22 and 23 (50 nM), 10—mixture of compounds 2 and 3 (200 nM), 11—compound 1 (200 nM), 12—extract from 5 g S. lividans TK24 mycelial cake.
Moes producers S. ghanaensis ATCC14672 and S. bambergiensis NRRL-B12101 were obtained from American Type Culture Collection (“ATCC”) and the U.S. Department of Agriculture, respectively. S. lividans TK24, S. coelicolor M145 (Kieser 2000), S. cyanogenus S136 (Westrich 1999) were used in studies on moe A resistance in Streptomyces. Bacillus cereus ATCC19637 was used as a moe-sensitive test culture.
For all moe production analysis procedures, equal amounts of biomass (wet weight) and fermentation medium were used. […]
Heterologous expression of moe biosynthetic genes in S. lividans TK24 leads to the production of moe derivatives and intermediates. […] Antibiotic disc diffusion assay, LC-MS, MS/MS and determination of accurate mass spectra of moenomycins were carried out as described in (Ostash 2007). ^1H NMR spectra of compound 11 (FIG. 4) were recorded on a Varian Inova 500 (500 MHz) instrument in D2O (4.80 ppm). […]

Assay [2] relates to bacteria. To be noted: cited from earlier work.

Consider `C=C(C/C=C(\C)CCC=C(C)C)CCC(C)(C)/C=C/CC/C(C)=C\CO[C@H](COP(=O)(O)OC1OC(C(N)=O)C(C)(O)C(OC(N)=O)C1OC1OC(COC2OC(CO)C(O)C(O)C2O)C(O)C(O)C1NC(C)=O)C(=O)O` (some centres unmarked) [Compound 11], for which the “antibacterial activity (bioactivity) in disk diffusion assay” value in assay [1] is “has biological activity; also recorded: biologically active”.

On to Neryl-moenomycin, for which the “activity in vivo (biological / antibacterial activity)” value in assay [2] was “biologically inactive”.

Values taken from patent US9115358B2, “Moenomycin biosynthesis-related compositions and methods of use thereof” (priority 2006, dated 2015).
